Values of other authors as cited in patent US10507205B2, “Methods of treating opiate dependency and preventing non-oral opiate abuse among opiate addicts” (PURDUE PHARMACEUTICAL PRODUCTS L.P., priority 2006, dated 2019).

Details: pronounced first-pass metabolism, 'sometimes less than 5%'

## C=CCN1CCC23c4c5ccc(O)c4OC2C(=O)CCC3(O)C1C5 (stereo not shown) [naloxone, Naloxone]
  bioavailability of orally administered naloxone: less than 5%
